Measurements reported in ChEMBL document CHEMBL1127010, “Synthesis of 3-acetoxy-12-epoxy-25-hydroxy-cholesta-5,7-diene and 2-25-dihydroxyvitamin D3” (1993).

Test system: HL-60
Test: Concentration required for induction of HL-60 cell differentiation (ATCC cells) to 50% was determined
Assay type: functional, Homo sapiens

EC50: 600 nM
SMILES: C=C1C[C@H](O)[C@H](O)C/C1=C/C=C1\CCCC2(C)C1CCC2[C@H](C)CCCC(C)(C)O (stereo partly specified)
